Laboratory results from PMC12746157, “Light-Regulated Agonists Spatiotemporally Activating the Vitamin D Receptor Mitigate Psoriasis-like Inflammation in Mice without Inducing Hypercalcemia” (ACS Central Science, 2025).

Legend:
[1] = UV-Vis absorption spectra and thermal relaxation of the cis isomers in DMSO; assay type: physicochemical; details: 60 μM in 100% DMSO, 37 °C; for λn−π* (cis): after illumination; for λπ–π* (trans): dark
Method: The UV–vis absorbance spectra of all molecules were measured in the dark and after the application of light of different wavelengths ranging from 365 to 770 nm (Figure A and Figures S1–S3). […] Consequently, violet/UV light below 405 nm efficiently promoted photoisomerization, which produced a dramatic decrease in the π-π* band and a significant increase in the n-π* band at around 445 nm (Table ). […] The proportion of molecules at the PSS in trans isomer upon constant illumination with light at 525 nm and cis at 365 nm was in general above 50%, reaching a remarkable >99% for compound 11d (Table and Figures S4 and S5). […] The greater stability of the trans isomer was consistent with previous quantum mechanical and molecular mechanics predictions. Measuring the photoisomerization properties of compound PhotoVDRM allowed us to determine the photoisomerization quantum yields of the compound by solving a differential equation for photoisomerization. We used MATLAB to perform regression and arrive at the following photoisomerization quantum yields: ϕ365 nm (trans) = 0.0427, ϕ365 nm (cis) = 0.0501, ϕ470 nm (trans) = 0.1857, and ϕ470 nm (cis) = 0.2281 (Figure S9). Compound PhotoVDRM was also evaluated in aqueous buffer used for pharmacological experiments (0.5% DMSO) showing a thermal relaxation of 3 h, almost 7 times faster than in pure DMSO (Figure B). […] A deeper photocharacterization of PhotoVDRM allowed us to measure the kinetics of photoconversion upon constant illumination with two wavelengths and three light intensities (Figure D and Figure S10). […] Indeed, with LED devices producing light at intensities as low as 0.05 mW/mm^2 we were able to transform trans to cis in around 15.5 s. This time was reduced to 6 and 2 s when the light intensity was increased to 0.15 and 0.75 mW/mm^2. […] Therefore, we proceeded to test the ability of the chemical library to activate the VDR under different light conditions.
2. Photochemical characterization. […]
(§1) (200 µL per well). The absorption spectra were recorded from 300 to 600 nm with 2 nm fixed intervals using a Tecan Spark 20M Multimode microplate reader. Initial measurements were performed in the dark, followed by spectra acquired immediately after each 3 min period of light irradiation at different wavelengths using 96-well LED array plates (LEDA Teleopto). Theoretical absorbance spectra corresponding to the pure cis isomer (100%) of each compound were calculated in order to obtain the theoretical percentage of cis isomer at each wavelength, according to the method described by Ernst Fischer (1967). Thermal relaxation kinetics of the experimental cis isomers were assessed in quartz cuvettes (10 mm optical path) containing freshly prepared 50 […]
Dark state absorbance at 365 nm was recorded at 37
ºC using a ThermoFisher Evolution 350 UV-Vis spectrophotometer. Samples were then irradiated for 3 minutes at 365 nm with a CoolLED pE-4000 light sourceto induce trans → cis photoisomerization.. Absorbance at 365 nm was subsequently monitored over 48 h: every 15 min during the first 24 h, and every 60 min during the following 24 h. Relaxation half-lives were determined by fitting the absorbance-time data to a […] exponential model using GraphPad Prism v10.4.1. […]

[2] = Proportions of cis and trans at the photostationary state in DMSO from absorbance spectra (Ernst Fischer method); assay type: physicochemical
Method: 2. Photochemical characterization.
as §1, with “A 50 µM solution of each compound in DMSO was dispensed into a transparent 96-well plate (200” for “(200”, “(1967).” for “(1967). Thermal relaxation kinetics of the experimental cis isomers were assessed in quartz cuvettes (10 mm optical path) containing freshly prepared 50”
Table S6. Proportions of cis and trans at the photostationary state in DMSO. […]

Compound | t 1/2 (thermal relaxation of cis) [1] [h] | λn−π* (cis) [1] [nm] | λπ–π* (trans) [1] [nm] | %cis at the photostationary state ([2]; 365 nm) | %trans at the photostationary state ([2]; 365 nm) | %cis at the photostationary state ([2]; 380 nm) | %trans at the photostationary state ([2]; 380 nm) | %cis at the photostationary state ([2]; 405 nm) | %trans at the photostationary state ([2]; 405 nm) | %cis at the photostationary state ([2]; 420 nm) | %trans at the photostationary state ([2]; 420 nm) | %cis at the photostationary state ([2]; 470 nm) | %trans at the photostationary state ([2]; 470 nm) | %cis at the photostationary state ([2]; 500 nm) | %trans at the photostationary state ([2]; 500 nm) | %cis at the photostationary state ([2]; 530 nm) | %trans at the photostationary state ([2]; 530 nm) | %cis at the photostationary state ([2]; 420 nm, listed as PhotoVDRM)
COC(=O)c1ccc(-c2cccc(/N=N/c3ccc(OCC(O)C(C)(C)C)cc3C)c2)cc1 (stereo not shown) [Compound 10b] | 7.6 | 440 | 360 | 97,26% | 2,74% | 96,48% | 3,52% | 66,00% | 34,00% | 62,72% | 37,28% | 34,89% | 65,11% | 35,65% | 64,35% | 31,97% | 68,03% | –
Cc1cc(OCC(O)C(C)(C)C)ccc1N=Nc1cccc(-c2ccc(C(=O)O)cc2)c1 (stereo not shown) [Compound 11b] | 20.5 | 442 | 362 | 96,87% | 3,13% | 95,62% | 4,38% | 63,64% | 36,36% | 60,47% | 39,53% | 31,30% | 68,70% | 32,81% | 67,19% | 29,14% | 70,86% | up to 60%
Cc1cc(/N=N/c2cccc(-c3ccc(C(=O)O)cc3)c2)ccc1OCC(O)C(C)(C)C (stereo not shown) [Compound 11a] | 9.1 | 440 | 366 | 94,52% | 5,48% | 92,81% | 7,19% | 60,54% | 39,46% | 58,09% | 41,91% | 29,80% | 70,20% | 26,59% | 73,41% | 21,22% | 78,78% | –
Cc1cc(/N=N/c2cccc(-c3ccc(CO)cc3)c2)ccc1OCC(O)C(C)(C)C (stereo not shown) [Compound 12a] | 9.1 | 444 | 364 | 97,06% | 2,94% | 95,61% | 4,39% | 63,64% | 36,36% | 60,45% | 39,55% | 33,06% | 66,94% | 34,03% | 65,97% | 30,20% | 69,80% | –
Cc1cc(OCC(O)C(C)(C)C)ccc1/N=N/c1cccc(-c2ccc(CO)cc2)c1 (stereo not shown) [Compound 12b] | 6.8 | 444 | 362 | 96,19% | 3,81% | 95,15% | 4,85% | 62,30% | 37,70% | 59,96% | 40,04% | 29,61% | 70,39% | 25,15% | 74,85% | 19,72% | 80,28% | –

Continued, in another order:

t 1/2 (thermal relaxation of cis) [1] [h] | λn−π* (cis) [1] [nm] | λπ–π* (trans) [1] [nm] | %cis at the photostationary state ([2]; 365 nm) | %trans at the photostationary state ([2]; 365 nm) | %cis at the photostationary state ([2]; 380 nm) | %trans at the photostationary state ([2]; 380 nm) | %cis at the photostationary state ([2]; 405 nm) | %trans at the photostationary state ([2]; 405 nm) | %cis at the photostationary state ([2]; 420 nm) | %trans at the photostationary state ([2]; 420 nm) | %cis at the photostationary state ([2]; 470 nm) | %trans at the photostationary state ([2]; 470 nm) | %cis at the photostationary state ([2]; 500 nm) | %trans at the photostationary state ([2]; 500 nm) | %cis at the photostationary state ([2]; 530 nm) | %trans at the photostationary state ([2]; 530 nm) | Compound | %cis at the photostationary state ([2]; 420 nm, listed as PhotoVDRM)
25.4 | 444 | 364 | 97,22% | 2,78% | 94,72% | 5,28% | 61,36% | 38,64% | 59,26% | 40,74% | 31,49% | 68,51% | 28,18% | 71,82% | 22,70% | 77,30% | Cc1cc(/N=N/c2cccc(-c3ccc(C(=O)O)cc3C)c2)ccc1OCC(O)C(C)(C)C (stereo not shown) [Compound 11c] | –
9.3 | 446 | 366 | 93,70% | 6,30% | 91,83% | 8,17% | 60,42% | 39,58% | 58,05% | 41,95% | 29,15% | 70,85% | 25,54% | 74,46% | 20,56% | 79,44% | COC(=O)c1ccc(-c2cccc(/N=N/c3ccc(OCC(O)C(C)(C)C)c(C)c3)c2)cc1 (stereo not shown) [Compound 10a] | –
8.2 | 438 | 360 | 96,30% | 3,70% | 95,32% | 4,68% | 62,22% | 37,78% | 59,99% | 40,01% | 29,82% | 70,18% | 25,21% | 74,79% | 20,03% | 79,97% | COC(=O)c1ccc(-c2cccc(/N=N/c3ccc(OCC(O)C(C)(C)C)cc3C)c2)c(C)c1 (stereo not shown) [Compound 10d] | –
12.5 | 444 | 366 | 97,00% | 3,00% | 95,62% | 4,38% | 61,14% | 38,86% | 59,71% | 40,29% | 30,53% | 69,47% | 26,82% | 73,18% | 21,34% | 78,66% | COC(=O)c1ccc(-c2cccc(/N=N/c3ccc(OCC(O)C(C)(C)C)c(C)c3)c2)c(C)c1 (stereo not shown) [Compound 10c] | –
